The target in one assay is T1, GIP receptor (Homo sapiens, UniProt P48546).
T1 sequence (P48546 22-466): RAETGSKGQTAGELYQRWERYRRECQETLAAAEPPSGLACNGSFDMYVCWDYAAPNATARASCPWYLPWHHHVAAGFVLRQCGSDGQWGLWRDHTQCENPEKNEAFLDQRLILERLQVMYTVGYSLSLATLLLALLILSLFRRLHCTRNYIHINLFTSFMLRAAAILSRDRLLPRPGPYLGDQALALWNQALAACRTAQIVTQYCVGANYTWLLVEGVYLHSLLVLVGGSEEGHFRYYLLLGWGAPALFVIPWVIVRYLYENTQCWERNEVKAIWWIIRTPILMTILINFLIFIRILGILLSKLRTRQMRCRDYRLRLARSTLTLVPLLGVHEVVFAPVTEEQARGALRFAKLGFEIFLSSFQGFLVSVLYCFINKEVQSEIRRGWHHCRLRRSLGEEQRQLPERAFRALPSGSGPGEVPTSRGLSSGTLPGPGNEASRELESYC
As to the kind of experiment: cAMP induction, firefly luciferase reporter assay in HEK293 cells co-transfected with GIP receptor. The format is cell-based.

A further assay addresses T2, GLP-1 receptor (Homo sapiens, UniProt P43220).
T2 construct: expressed in transfected cells; host or cells: HEK293
As to the kind of experiment: cAMP induction, firefly luciferase reporter assay in HEK293 cells co-transfected with GLP-1 receptor. The format is cell-based. An excerpt: This example describes an exemplary method of testing the biological activity of the peptides of the present disclosures, which method involves assaying cAMP synthesis.

Where [1] appears, read: EC50 (nM) at GLP-1 Receptor, Table 6, Example 12.

For orientation: EC50 means the midpoint of the concentration-response curve.

Each structure is given as a SMILES string. Like-named read-outs stand apart in the source and are kept apart here. *1 amine or outer side, *2 acyl side, *3 side chain or, on linkers, in order; H or OH if unused. Where a SMILES comes first, the peptide text is derived from it. Side-chain parts run from the residue outwards. [ ]: non-standard residue; d: D form. The star is where a group is joined. γGlu = O=C(O)[C@H](CCC(=O)[*:2])N[*:1]; Palmitoyl = CCCCCCCCCCCCCCCC(=O)*; Aib = CC(C)(N)C(=O)O

T2 sequence (P43220 24-463): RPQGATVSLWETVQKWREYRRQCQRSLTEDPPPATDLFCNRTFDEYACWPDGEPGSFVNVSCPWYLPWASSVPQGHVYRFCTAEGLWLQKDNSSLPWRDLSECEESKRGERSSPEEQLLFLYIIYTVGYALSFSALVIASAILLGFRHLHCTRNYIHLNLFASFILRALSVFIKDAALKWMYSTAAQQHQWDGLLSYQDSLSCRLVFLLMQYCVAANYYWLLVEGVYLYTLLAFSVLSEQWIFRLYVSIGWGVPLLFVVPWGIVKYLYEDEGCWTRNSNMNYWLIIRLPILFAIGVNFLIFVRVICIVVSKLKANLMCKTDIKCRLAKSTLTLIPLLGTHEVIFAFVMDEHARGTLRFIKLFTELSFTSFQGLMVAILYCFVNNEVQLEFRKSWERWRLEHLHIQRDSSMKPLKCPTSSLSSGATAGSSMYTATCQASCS

In turn, `CCCCCCCCCCCCCCCC(=O)N[C@@H](CCC(=O)NCCCC[C@H](NC(=O)[C@H](CC(=O)O)NC(=O)[C@H](CO)NC(=O)[C@@H](NC(=O)[C@H](Cc1ccccc1)NC(=O)[C@@H](NC(=O)CNC(=O)[C@H](CCC(N)=O)NC(=O)C(C)(C)NC(=O)[C@@H](N)Cc1c[nH]cn1)[C@@H](C)O)[C@@H](C)O)C(=O)N[C@@H](CO)C(=O)N[C@@H](CCCCN)C(=O)N[C@@H](Cc1ccc(O)cc1)C(=O)N[C@@H](CC(C)C)C(=O)N[C@@H](CC(=O)O)C(=O)N[C@@H](CCC(=O)O)C(=O)N[C@@H](CCCNC(=N)N)C(=O)N[C@@H](CCCNC(=N)N)C(=O)N[C@@H](C)C(=O)NC(C)(C)C(=O)N[C@@H](CCC(=O)O)C(=O)N[C@@H](Cc1ccccc1)C(=O)N[C@H](C(=O)N[C@@H](CCC(N)=O)C(=O)N[C@@H](Cc1c[nH]c2ccccc12)C(=O)N[C@@H](CC(C)C)C(=O)N[C@@H](CC(C)C)C(=O)N[C@@H](CC(=O)O)C(=O)NCC(=O)NCC(=O)N1CCC[C@H]1C(=O)N[C@@H](CO)C(=O)N[C@@H](CO)C(=O)NCC(=O)N[C@@H](C)C(=O)N1CCC[C@H]1C(=O)N1CCC[C@H]1C(=O)N1CCC[C@H]1C(=O)N[C@@H](CO)C(N)=O)C(C)C)C(=O)O` [SEQ ID NO: 37] (H-H[Aib]QGTFTSDK([γGlu-Palmitoyl])SKYLDERRA[Aib]EFVQWLLDGGPSSGAPPPS-NH2; N-terminus assumed) had a concentration giving a half-maximal response (EC50) on GIP receptor (GIP (0.01), Table 8, Example 14, activity at the GIP receptor) of 0.003 nM. Take `CCCCCCCCCCCCCCCC(=O)NCCCC[C@H](NC(=O)[C@H](CO)NC(=O)[C@@H]1CCCN1C(=O)[C@@H]1CCCN1C(=O)[C@@H]1CCCN1C(=O)[C@H](C)NC(=O)CNC(=O)[C@H](CO)NC(=O)[C@H](CO)NC(=O)[C@@H]1CCCN1C(=O)CNC(=O)CNC(=O)[C@H](C)NC(=O)[C@H](CC(C)C)NC(=O)[C@H](CC(C)C)NC(=O)[C@H](Cc1c[nH]c2ccccc12)NC(=O)[C@H](CC(N)=O)NC(=O)[C@@H](NC(=O)[C@H](Cc1ccccc1)NC(=O)[C@H](CCC(=O)O)NC(=O)C(C)(C)NC(=O)[C@H](C)NC(=O)[C@H](C)NC(=O)[C@H](CCC(N)=O)NC(=O)[C@H](CCCCN)NC(=O)[C@H](CC(=O)O)NC(=O)[C@H](CC(C)C)NC(=O)[C@H](Cc1ccc(O)cc1)NC(=O)[C@@H](NC(=O)[C@H](CO)NC(=O)[C@H](Cc1ccc(O)cc1)NC(=O)[C@H](CC(=O)O)NC(=O)[C@H](CO)NC(=O)[C@@H](NC(=O)[C@H](Cc1ccccc1)NC(=O)[C@@H](NC(=O)CNC(=O)[C@H](CCC(=O)O)NC(=O)C(C)(C)NC(=O)[C@@H](N)Cc1ccc(O)cc1)[C@@H](C)O)[C@@H](C)O)[C@@H](C)CC)C(C)C)C(=O)NCC(N)=O` [SEQ ID NO: 139]: the EC50 was 0.005 nM at GLP-1 receptor (EC50 (nM) at GLP-1 Receptor, Table 9, Example 15) and 0.001 nM at GIP receptor (EC50 (nM) at GIP Receptor, Table 9, Example 15). The molecule `CC[C@H](C)[C@H](NC(=O)[C@H](CO)NC(=O)[C@H](Cc1ccc(O)cc1)NC(=O)[C@H](CC(=O)O)NC(=O)[C@H](CO)NC(=O)[C@@H](NC(=O)[C@H](Cc1ccccc1)NC(=O)[C@@H](NC(=O)CNC(=O)[C@H](CCC(N)=O)NC(=O)C(C)(C)NC(=O)[C@@H](N)Cc1c[nH]cn1)[C@@H](C)O)[C@@H](C)O)C(=O)N[C@@H](Cc1ccc(O)cc1)C(=O)N[C@@H](CC(C)C)C(=O)N[C@@H](CC(=O)O)C(=O)N[C@@H](CCC(=O)O)C(=O)N[C@@H](CCCCN)C(=O)N[C@@H](CCCNC(=N)N)C(=O)N[C@@H](C)C(=O)N[C@@H](CCCCN)C(=O)N[C@@H](CCC(=O)O)C(=O)N[C@@H](Cc1ccccc1)C(=O)N[C@H](C(=O)N[C@@H](CS)C(=O)N[C@@H](Cc1c[nH]c2ccccc12)C(=O)N[C@@H](CC(C)C)C(=O)N[C@@H](CC(C)C)C(=O)N[C@@H](C)C(=O)NCC(=O)NCC(=O)N1CCC[C@H]1C(=O)N[C@@H](CO)C(=O)N[C@@H](CO)C(=O)NCC(=O)N[C@@H](C)C(=O)N1CCC[C@H]1C(=O)N1CCC[C@H]1C(=O)N1CCC[C@H]1C(=O)N[C@@H](CO)C(=O)N[C@@H](CCCCN)C(N)=O)C(C)C` [SEQ ID NO: 230] (H-H[Aib]QGTFTSDYSIYLDEKRAKEFVCWLLAGGPSSGAPPPSK-NH2; N-terminus assumed) yielded an EC50 on GLP-1 receptor (GLP-1 EC50 (nM), Table 17, Example 25) of 0.222 nM. As to `CCCCCCCCCCCCCCCC(=O)N[C@@H](CCC(=O)NCCCC[C@H](NC(=O)[C@H](CC(=O)O)NC(=O)[C@H](CO)NC(=O)[C@@H](NC(=O)[C@H](Cc1ccccc1)NC(=O)[C@@H](NC(=O)CNC(=O)[C@H](CCC(=O)O)NC(=O)C(C)(C)NC(=O)[C@@H](N)Cc1c[nH]cn1)[C@@H](C)O)[C@@H](C)O)C(=O)N[C@@H](CO)C(=O)N[C@@H](CCCCN)C(=O)N[C@@H](Cc1ccc(O)cc1)C(=O)N[C@@H](CC(C)C)C(=O)N[C@@H](CC(=O)O)C(=O)N[C@@H](CCC(=O)O)C(=O)N[C@@H](CCCNC(=N)N)C(=O)N[C@@H](CCCNC(=N)N)C(=O)N[C@@H](C)C(=O)NC(C)(C)C(=O)N[C@@H](CCC(=O)O)C(=O)N[C@@H](Cc1ccccc1)C(=O)N[C@H](C(=O)N[C@@H](CCC(N)=O)C(=O)N[C@@H](Cc1c[nH]c2ccccc12)C(=O)N[C@@H](CC(C)C)C(=O)N[C@@H](CC(C)C)C(=O)N[C@@H](CC(=O)O)C(=O)NCC(=O)NCC(=O)N1CCC[C@H]1C(=O)N[C@@H](CO)C(=O)N[C@@H](CO)C(=O)NCC(=O)N[C@@H](C)C(=O)N1CCC[C@H]1C(=O)N1CCC[C@H]1C(=O)N1CCC[C@H]1C(=O)N[C@@H](CO)C(N)=O)C(C)C)C(=O)O` [compound 38] (H-H[Aib]EGTFTSDK([γGlu-Palmitoyl])SKYLDERRA[Aib]EFVQWLLDGGPSSGAPPPS-NH2; N-terminus assumed), a half-maximal response on GLP-1 receptor (EC50 (nM) at GLP-1 Receptor, Table 4, Example 9, composite of multiple different activity assays) (EC50) required 0.008 nM. At GLP-1 receptor (setting [1]), `CC[C@H](C)[C@H](NC(=O)[C@H](CO)NC(=O)[C@H](Cc1ccc(O)cc1)NC(=O)[C@H](CC(=O)O)NC(=O)[C@H](CO)NC(=O)[C@@H](NC(=O)[C@H](Cc1ccccc1)NC(=O)[C@@H](NC(=O)CNC(=O)[C@H](CCC(N)=O)NC(=O)[C@@H](CO)NC(=O)[C@@H](N)Cc1ccc(O)cc1)[C@@H](C)O)[C@@H](C)O)C(=O)N[C@@H](Cc1ccc(O)cc1)C(=O)N[C@@H](CC(C)C)C(=O)N[C@@H](CC(=O)O)C(=O)N[C@@H](CCCCN)C(=O)N[C@@H](CCC(N)=O)C(=O)N[C@@H](C)C(=O)N[C@@H](C)C(=O)NC(C)(C)C(=O)N[C@@H](CCC(=O)O)C(=O)N[C@@H](Cc1ccccc1)C(=O)N[C@H](C(=O)N[C@@H](CC(N)=O)C(=O)N[C@@H](Cc1c[nH]c2ccccc12)C(=O)N[C@@H](CC(C)C)C(=O)N[C@@H](CC(C)C)C(=O)N[C@@H](C)C(=O)NCC(=O)NCC(=O)N1CCC[C@H]1C(=O)N[C@@H](CO)C(=O)N[C@@H](CO)C(=O)NCC(=O)N[C@@H](C)C(=O)N1CCC[C@H]1C(=O)N1CCC[C@H]1C(=O)N1CCC[C@H]1C(=O)N[C@@H](CO)C(=O)N[C@@H](CS)C(N)=O)C(C)C` [compound 50] came in with a concentration for a half-maximal effect (EC50) of 0.108 nM.

Take `CCCCCCCCCCCCCCCC(=O)N[C@@H](CCC(=O)NCCCC[C@H](NC(=O)[C@H](CC(=O)O)NC(=O)[C@H](CO)NC(=O)[C@@H](NC(=O)[C@H](Cc1ccccc1)NC(=O)[C@@H](NC(=O)CNC(=O)[C@H](CCC(=O)O)NC(=O)C(C)(C)NC(=O)[C@@H](N)Cc1c[nH]cn1)[C@@H](C)O)[C@@H](C)O)C(=O)N[C@@H](CO)C(=O)N[C@@H](CCCCN)C(=O)N[C@@H](Cc1ccc(O)cc1)C(=O)N[C@@H](CC(C)C)C(=O)N[C@@H](CC(=O)O)C(=O)N[C@@H](CCC(=O)O)C(=O)N[C@@H](CCCNC(=N)N)C(=O)N[C@@H](C)C(=O)N[C@@H](C)C(=O)N[C@@H](CCC(N)=O)C(=O)N[C@@H](CC(=O)O)C(=O)N[C@@H](Cc1ccccc1)C(=O)N[C@H](C(=O)N[C@@H](CCC(N)=O)C(=O)N[C@@H](Cc1c[nH]c2ccccc12)C(=O)N[C@@H](CC(C)C)C(=O)N[C@@H](CC(C)C)C(=O)N[C@@H](CC(=O)O)C(=O)NCC(=O)NCC(=O)N1CCC[C@H]1C(=O)N[C@@H](CO)C(=O)N[C@@H](CO)C(=O)NCC(=O)N[C@@H](C)C(=O)N1CCC[C@H]1C(=O)N1CCC[C@H]1C(=O)N1CCC[C@H]1C(=O)N[C@@H](CO)C(N)=O)C(C)C)C(=O)O` [compound 80] (H-H[Aib]EGTFTSDK([γGlu-Palmitoyl])SKYLDERAAQDFVQWLLDGGPSSGAPPPS-NH2; N-terminus assumed): the EC50 at GLP-1 receptor (setting [1]) was found to be 0.008 nM.

Take `CC[C@H](C)[C@H](NC(=O)[C@H](CO)NC(=O)[C@H](Cc1ccc(O)cc1)NC(=O)[C@H](CC(=O)O)NC(=O)[C@H](CO)NC(=O)[C@@H](NC(=O)[C@H](Cc1ccccc1)NC(=O)[C@@H](NC(=O)CNC(=O)[C@H](CCC(N)=O)NC(=O)C(C)(C)NC(=O)[C@@H](N)Cc1ccc(O)cc1)[C@@H](C)O)[C@@H](C)O)C(=O)N[C@@H](Cc1ccc(O)cc1)C(=O)N[C@@H](CC(C)C)C(=O)N[C@@H](CC(=O)O)C(=O)N[C@@H](CCCCN)C(=O)N[C@@H](CCCCN)C(=O)N[C@@H](C)C(=O)N[C@@H](C)C(=O)NC(C)(C)C(=O)N[C@@H](CCC(=O)O)C(=O)N[C@@H](Cc1ccccc1)C(=O)N[C@H](C(=O)N[C@@H](CC(N)=O)C(=O)N[C@@H](Cc1c[nH]c2ccccc12)C(=O)N[C@@H](CC(C)C)C(=O)N[C@@H](CC(C)C)C(=O)N[C@@H](C)C(=O)NCC(=O)NCC(=O)N1CCC[C@H]1C(=O)N[C@@H](CO)C(=O)N[C@@H](CO)C(=O)NCC(=O)N[C@@H](C)C(=O)N1CCC[C@H]1C(=O)N1CCC[C@H]1C(=O)N1CCC[C@H]1C(=O)N[C@@H](CO)C(=O)N[C@@H](CCCCN)C(N)=O)C(C)C` [mt-402]: on GLP-1 receptor (read-out: GLP-1 Receptor EC50, Table 1, Example 6), the concentration giving a half-maximal response (EC50) was determined as 0.007 nM.

Source of the values: patent US9587005B2 (priority 2010, dated 2017).
